Columns and labels:
[1] = tested on: IB3-1 cells; assay: Cell proliferation assay on IB3-1 cells; type: cell-based; settings: Homo sapiens, cell number/ml after 48 h of treatment
Experimental: Monolayers of 60% confluent IB3-1 cells were seeded in 24- or 12-well plates in LHC-8 medium in the presence of 5% FBS. After 24 h, TMA derivatives were added at serial dilutions and incubated for further 2-3 days. The effects of compounds (TMA derivatives) on the cell proliferation were analyzed as elsewhere described. A first analysis was performed with serial dilutions to obtain 50 μM, 200 μM, and 800 μM solutions. In order to determine IC50 values, the following concentrations were used 12.5, 25, 50, 100, 200, and 800 μM. In order to prepare the cells for counting, they were washed with PBS 1X and detached with trypsin/EDTA. Cells were suspended in physiological solution and counted with a Z2 Coulter Counter (Coulter Electronics, Hialeah, FL, USA). The cell number/ml was determined as IC50 after 2 days of culture, when untreated cells are in log phase of cell growth.
In order to obtain preliminary information on the biological properties of TMA derivatives, their effects on cell growth were examined on IB3-1 cell line, excellent biological model to study new potential anti-inflammatory molecules. The use of this cell line to study the expression of proinflammatory molecules under a variety of stimuli is well established. Monolayers of 60% confluent IB3-1 cells were seeded in 12-well plate in LHC-8 medium with 5% FBS. After 24 h, compounds were added at different concentrations and the cell number/ml was determined after further 48 h of culture.

[2] = tested on: IL-8; assay: Bioplex analysis of IL-8 release in TNF-α-induced IB3-1 cells; type: cell-based, human; settings: 1 μM, compared to untreated TNF-α-stimulated IB3-1 cells, 5 h pretreatment then TNF-α 24 h
Experimental: The Bioplex cytokine assay is designed for the multiplexed quantitative measurement of multiple cytokines in a single well using as little as 50 μl of sample. In our experiments, the premixed multiplex beads (27-plex) of the Bioplex human cytokines were used. 50 μl of cytokine standards or samples (supernatants recovered from treated cells and diluted to 2 μg/μl) were incubated with 50 μl of anticytokine conjugated beads in 96-well filter plates for 30 min at room temperature with shaking. Plates were washed by vacuum filtration three times with 100 μl of Bioplex wash buffer, 25 μl of diluted detection antibody were added, and plates were incubated for 30 min at room temperature with shaking. After three filter washes, 50 μl of streptavidin-phycoerythrin were added, and the plates were incubated for 10 min at room temperature with shaking. Finally, plates were washed by vacuum filtration three times, beads were suspended in Bioplex assay buffer, and samples were analyzed on a Bio-Rad 96-well plate reader using the Bioplex Suspension Array System and Bioplex Manager software (Bio-Rad Laboratories Inc., Hercules, CA).
In order to verify the effects on the secretion of IL-8 by IB3-1 cells, Luminex technology was employed to detect and quantify proteins secreted into the medium. […]

[3] = target: T1, NF-κB p50 (Homo sapiens, UniProt P19838); assay: EMSA, inhibition of NF-κB/DNA interactions; type: binding; settings: NF-κB p50 and 32P-labeled NF-κB oligonucleotide, MIC = minimal inhibitory concentration, 12.5 μM was the lowest concentration used
T1 construct: This assay was performed using purified NF-κB p50; purchased Promega
T1 sequence (P19838 1-433 limits assumed): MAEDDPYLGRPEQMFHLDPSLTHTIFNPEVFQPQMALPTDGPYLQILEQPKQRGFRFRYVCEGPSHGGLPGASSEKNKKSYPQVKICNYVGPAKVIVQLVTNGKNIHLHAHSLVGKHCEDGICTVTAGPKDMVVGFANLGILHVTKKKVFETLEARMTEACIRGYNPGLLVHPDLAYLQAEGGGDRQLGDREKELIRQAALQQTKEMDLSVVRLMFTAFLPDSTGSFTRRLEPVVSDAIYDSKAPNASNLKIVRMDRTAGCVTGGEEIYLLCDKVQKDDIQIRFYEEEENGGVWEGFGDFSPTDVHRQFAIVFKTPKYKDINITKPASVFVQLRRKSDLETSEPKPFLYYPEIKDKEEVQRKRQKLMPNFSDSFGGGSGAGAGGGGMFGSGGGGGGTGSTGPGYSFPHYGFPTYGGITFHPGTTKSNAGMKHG
Experimental: Electrophoretic mobility shift assays were performed using double-stranded ^32P-labeled oligonucleotides as target DNA. Binding reactions were set up as previously described in binding buffer (10% glycerol, 0.05% NP-40, 10 mM Tris-HCl pH 7.5, 50 mM NaCl, 0.5 mM DTT, and 10 mM MgCl2), in the presence of 0.1 μl/20 μl of NF-κB p50 (50 gsu) (Promega, Madison, WI, USA) and 0.25 ng of labeled oligonucleotide, in a total volume of 20 μl. After 30 min binding at room temperature, samples were electrophoresed at constant voltage (200 V for 30 min) through a low ionic strength (0.25 TBE buffer) (1 TBE/40.089 M Tris-borate, 0.002 M EDTA) on 6% polyacrylamide gels until the tracking dye (bromophenol blue) reached the bottom of a 16 cm slab. Gels were dried and exposed for autoradiography with intensifying screens at […]. In these experiments, DNA/protein complexes migrate through the gel with slower efficiency. In studies on the inhibitors of protein/DNA interactions, addition of the reagents was as follows: (i) nuclear factors, (ii) active principles, (iii) binding buffer, and (iv) labeled oligonucleotides mimicking the binding sites for TF to be modulated. The nucleotide sequence of double-stranded target DNA utilized in these experiments was 5′-CGC TGG GGA CTT TCC ACG G-3′ (sense strand, NF-κB). The synthetic oligonucleotides utilized in this study were purchased from Sigma Genosys (Sigma Genosys, Cambs, UK). To calculate the effective concentrations, three different autoradiograms obtained from different time exposures were scanned and compared to control EMSA performed without addition of angelicin analogues (two independent experiments were performed).
The effects of TMA derivatives on NF-κB- (nuclear factor-kappaB-) mediated induction of proinflammatory genes was verified first in vitro by electrophoretic mobility shift assay (EMSA) with the aim to verify and quantify the possible inhibition of NF-κB/DNA interactions. This assay was performed using purified NF-κB p50 and ^32P-labeled target NF-κB double-stranded oligonucleotide mimicking the NF-κB consensus sequence present within the IL-8 gene promoter.

## Cc1oc2c(C)cc3c(C)cc(=O)oc3c2c1C [Compound 1]
[1]
  IC50: > 800 µM
[2]
  Reduction of IL-8 secretion: about 50%
[3]
  Inhibition of NF-κB/DNA complex (MIC): <12.5 (^∗) μM
